Laboratory results from patent publication EP0762893B1, “TREATMENT OF PLASMA” (SUOMEN PUNAINEN RISTI VERIPALVELU, priority 1994, dated 1995).

Experiments:
fibrinogen = test: Inactivation of clottable fibrinogen during MB photochemical treatment of 2 ml pooled plasma samples (thromboplastin time assay); assay type: biochemical; conditions: 1 µmol/l of MB, TL-M 115/33 fluorescent tubes for 1 h
F VIII = test: Inactivation of F VIII activity during MB photochemical treatment of 2 ml pooled plasma samples (chromogenic substrate assay); assay type: biochemical; conditions: 1 µmol/l of MB, TL-M 115/33 fluorescent tubes for 1 h
[1] = Disappearance of ascorbate and urate from plasma during MB photochemical treatment (HPLC); conditions: compared with ascorbate

disappearance of urate from plasma [1]	SMILES	extent of inactivation of fibrinogen (fibrinogen)	absorbing form of MB after dilution	extent of inactivation of factor VIII (F VIII)
	CN(C)c1ccc2nc3ccc(=[N+](C)C)cc-3sc2c1 [MB, methylene blue]	about 50%	quantitatively restored	~40%
clearly more slowly than ascorbate	O=c1[nH]c(=O)c2[nH]c(=O)[nH]c2[nH]1 [Urate, urate]			
